# What was measured:
# [1] = test system: 3D7 chloroquine sensitive strain of Plasmodium falciparum; test: antiplasmodial activity against 3D7 strain; assay type: cell-based; conditions: read-out: in vitro antiplasmodial activity (IC50 value class)
# Method: Antiplasmodial activity against the 3D7 chloroquine sensitive strain of Plasmodium falciparumwas determined as described elsewhere (J. Med. Chem. (2001) 44(19), 3187-3194).
# [2] = test system: multiresistant Dd2 strain of Plasmodium falciparum; test: antiplasmodial action, [8-3H]hypoxanthine incorporation, Dd2 strain; assay type: cell-based; conditions: read-out: in vitro antiplasmodial activity (IC50 value class)
# Method: For the determination of the antiplasmodial action of the compounds, the multiresistant Dd2 strain of Plasmodium falciparum was used. The incorporation of [8-^3H]hypoxanthine into the parasitic nucleic acids was measured. The plasmodia were incubated at 0.3% parasitaemia and an erythrocyte haematocrit of 2.5% in the presence of different concentrations of the compounds in a final volume of 200-μl. The medium employed was RPMI 1640 which contained 10% of heat-treated human serum and 3 mg/l of gentamycin. in the incubations, the concentrations of the compounds varied from 0.3 to 100 μM. After 48 h, each batch was treated with 50 µl of […] (1 mCi/ml) and incubated for a further 18 h. The cells were filtered off, washed and suspended in 20 μl of scintillation fluid. The radioactive hypoxanthine absorbed by the parasites was then quantified using a scintillation counter.
# The results were presented graphically and the IC50 value was determined using a fitting function. The value IC50, the ‘inhibition constant’, indicates the value in μMol/1 at which 50% inhibition occurs.
SMILES,IC50 [1] [nM],IC50 [2] [nM]
N=C(N)c1cccc(NC(=O)Nc2cccc([N+](=O)[O-])c2)c1 [Compound 5],1000 to 10000,10000 to 100000
N=C(N)c1cccc(NC(=O)Nc2cccc(C(F)(F)F)c2)c1 [Compound 10],1000 to 10000,1000 to 10000
N=C(N)c1cccc(NC(=O)Nc2cc(C(F)(F)F)cc(C(F)(F)F)c2)c1 [Compound 13],1000 to 10000,1000 to 10000
N=C(N)c1ccc(NC(=O)Nc2cc(C(F)(F)F)cc(C(F)(F)F)c2)cc1 [Compound 15],1000 to 10000,1000 to 10000
N=C(N)c1cccc(NC(=O)Nc2ccc3c(c2)S(=O)(=O)C=C3)c1 [Compound 18],< 1000,< 1000
N=C(N)c1cccc(NC(=O)Nc2cccc(S(N)(=O)=O)c2)c1 [Compound 24],10000 to 100000,10000 to 100000
N=C(N)c1cccc(NC(=O)Nc2ccc(S(=O)(=O)NCc3ccc(OC(F)(F)F)cc3)cc2)c1 [Compound 34],1000 to 10000,< 1000
N=C(N)c1cccc(NC(=O)Nc2ccc(S(=O)(=O)c3ccccc3)cc2)c1 [Compound 61],1000 to 10000,1000 to 10000
N=C(N)c1cccc(NC(=O)Nc2cccc(S(=O)(=O)c3ccccc3)c2)c1 [Compound 62],1000 to 10000,1000 to 10000
N=C(N)c1ccc(NC(=O)Nc2ccc(S(=O)(=O)c3ccccc3)cc2)cc1 [Compound 64],1000 to 10000,< 1000
Cc1ccc(C(=O)Nc2ccc(NC(=O)Nc3cccc(C(=N)N)c3)cc2O)cc1 [Compound 67],1000 to 10000,1000 to 10000
COc1ccccc1C(=O)Nc1cccc(NC(=O)Nc2cccc(C(=N)N)c2)c1 [Compound 68],,1000 to 10000
COc1ccc(C(=O)Nc2cccc(NC(=O)Nc3cccc(C(=N)N)c3)c2)cc1 [Compound 69],,< 1000
N=C(N)c1cccc(NC(=O)Nc2cccc(NC(=O)c3ccc(-c4ccccc4)cc3)c2)c1 [Compound 70],,1000 to 10000
Cc1cc(-c2onc(C)c2C(=O)Nc2ccc(NC(=O)Nc3cccc(C(=N)N)c3)cc2)no1 [Compound 71],,1000 to 10000
N=C(N)c1cccc(NC(=O)Nc2cccc(C(=O)NC(c3ccccc3)c3ccccc3)c2)c1 [Compound 72],,1000 to 10000
"N=C(N)c1cccc(NC(=O)Nc2ccc(C(=O)NCc3ccc(S(N)(=O)=O)cc3)cc2)c1 [Compound 73, 4-[3-(3-carbamimidoylphenyl)-ureido]-N-(4-sulfamoylbenzyl)-benzamide]",,1000 to 10000
N=C(N)c1cccc(NC(=S)Nc2ccc(S(=O)(=O)NCc3ccc(C(F)(F)F)cc3)cc2)c1 [Compound 74],,< 1000
N=C(N)c1cccc(NC(=S)Nc2ccc(S(=O)(=O)NCc3cccc(F)c3)cc2)c1 [Compound 75],,< 1000
N=C(N)c1cccc(NC(=S)Nc2ccc3c(c2)S(=O)(=O)C=C3)c1 [Compound 76],,< 1000

SMILES,IC50 [1] [nM],IC50 [2] [nM]
N=C(N)c1cccc(NC(=S)Nc2ccc(S(=O)(=O)c3ccc(NCCO)cc3)cc2)c1 [Compound 77],,1000 to 10000
N=C(N)c1cccc(NC(=S)Nc2ccc(S(=O)(=O)NCc3cccc(C(F)(F)F)c3)cc2)c1 [Compound 78],,< 1000
COC(=O)c1cc(NC(=S)Nc2cccc(C(=N)N)c2)cc(C(F)(F)F)c1 [Compound 79],,< 1000
CCN(CC)C(=O)c1cccc(NC(=S)Nc2cccc(C(=N)N)c2)c1 [Compound 80],,< 1000
CN(C)CCNC(=N)c1cccc(NC(=O)Nc2ccc(S(=O)(=O)c3ccc([N+](=O)[O-])cc3)cc2)c1 [Compound 81],,1000 to 10000
N=C(Nc1cccnc1)c1cccc(NC(=O)Nc2ccc(S(=O)(=O)c3ccc([N+](=O)[O-])cc3)cc2)c1 [Compound 82],,< 1000
N=C(NCCN1CCCC1)c1cccc(NC(=O)Nc2ccc(S(=O)(=O)c3ccc([N+](=O)[O-])cc3)cc2)c1 [Compound 83],,1000 to 10000
N=C(NCC1CCCO1)c1cccc(NC(=O)Nc2ccc(S(=O)(=O)c3ccc([N+](=O)[O-])cc3)cc2)c1 (stereo not drawn) [Compound 84],,1000 to 10000
N=C(NO)c1cccc(NC(=O)Nc2ccc(S(=O)(=O)c3ccc([N+](=O)[O-])cc3)cc2)c1 [Compound 85],,< 1000
COC(=O)c1cc(NC(=O)Nc2cccc(C(=N)Nc3cccnc3)c2)cc(C(F)(F)F)c1 [Compound 86],,1000 to 10000
COC(=O)c1cc(NC(=O)Nc2cccc(C(=N)NCCN(C)C)c2)cc(C(F)(F)F)c1 [Compound 87],,1000 to 10000
COC(=O)c1cc(NC(=O)Nc2cccc(C(=N)NCCN3CCCC3)c2)cc(C(F)(F)F)c1 [Compound 88],,1000 to 10000
N=C(Nc1cccnc1)c1cccc(NC(=O)Nc2ccc(S(=O)(=O)NCc3ccc(S(N)(=O)=O)cc3)cc2)c1 [Compound 89],,1000 to 10000
N=C(NCCN1CCOCC1)c1cccc(NC(=O)Nc2ccc(S(=O)(=O)NCc3ccc(S(N)(=O)=O)cc3)cc2)c1 [Compound 90],,< 1000
O=C(Nc1cccc(C2=NCCN2)c1)Nc1cccc(C(F)(F)F)c1 [Compound 91],,< 1000
N=C(NCCN1CCOCC1)c1cccc(NC(=O)Nc2cccc(C(F)(F)F)c2)c1 [Compound 93],,1000 to 10000
N=C(NO)c1cccc(NC(=O)Nc2ccc(S(=O)(=O)NCc3ccc(S(N)(=O)=O)cc3)cc2)c1 [Compound 96],,1000 to 10000
N=C(Nc1ccc(-c2ccccc2)cc1)c1cccc(NC(=O)Nc2cccc(C(F)(F)F)c2)c1 [Compound 100],,1000 to 10000
"N=C(N)c1cccc(NC(=O)C(=O)Nc2ccc(S(=O)(=O)NCc3ccccc3)cc2)c1 [Compound 101, N-(4-benzylsulfamoylphenyl)-N′-(3-carbamimidoyl-phenyl)-oxalamide]",,1000 to 10000
"N=C(N)c1cccc(NC(=O)C(=O)Nc2cccc(S(=O)(=O)NCc3ccccc3)c2)c1 [Compound 102, N-(3-benzylsulfamoylphenyl)-N′-(3-carbamimidoyl-phenyl)-oxalamide]",,10000 to 100000

# From US20020165236A1, “Compounds for the treatment of protozoal diseases” (priority 2001, published 2002)
